Reference: the supplement of paper PMC10307832

What was measured:
Assay in all cases: relative viability (nuclei count vs DMSO), 5 days (fraction); higher = more cells survive
[1] = compound: C1/C(=C\C2=CC=CS2)/C(=O)/C(=C/C3=CC=CS3)/C1 + Cc1nc(NC(=O)N2CCC[C@H]2C(N)=O)sc1-c1ccnc(C(C)(C)C(F)(F)F)c1 [Alpelisib] (partner 2 µM)
How it was run: (§1)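 Each reported value is a median over duplicate plates. It expresses relative viability: treated-well nuclei count divided by vehicle-well nuclei count. Lung cancer cell lines in 1536-well plates were dosed by pin tool a day after seeding, alone with one drug or with a fixed anchor-drug dose plus five library-drug doses (not always all listed) in √10 steps, and nuclei were counted after 5 days.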

[2] = compound: C1/C(=C\C2=CC=CS2)/C(=O)/C(=C/C3=CC=CS3)/C1 + Cc1nc(Nc2ncc(C(=O)Nc3c(C)cccc3Cl)s2)cc(N2CCN(CCO)CC2)n1 [Dasatinib] (partner 0.075 µM)
How it was run: as §1

TPCA-1 + OSI-027 = compound: C1=CC(=CC=C1C2=CC(=C(S2)NC(=O)N)C(=O)N)F [TPCA-1] + COc1cccc2cc(-c3nc([C@H]4CC[C@H](C(=O)O)CC4)n4ncnc(N)c34)[nH]c12 [OSI-027] (partner 0.5 µM)
How it was run: as §1

TPCA-1 + Pemetrexed = compound: C1=CC(=CC=C1C2=CC(=C(S2)NC(=O)N)C(=O)N)F [TPCA-1] + Nc1nc2[nH]cc(CCc3ccc(C(=O)N[C@@H](CCC(=O)O)C(=O)O)cc3)c2c(=O)[nH]1 [Pemetrexed] (partner 0.2 µM)
How it was run: as §1

Cell Line	relative viability ([1]; first compound 0.2 µM)	relative viability ([1]; first compound 0.6325 µM)	relative viability ([1]; first compound 2 µM)	relative viability ([1]; first compound 6.325 µM)	relative viability ([1]; first compound 20 µM)	relative viability ([2]; first compound 0.2 µM)	relative viability ([2]; first compound 0.6325 µM)	relative viability ([2]; first compound 2 µM)	relative viability ([2]; first compound 6.325 µM)	relative viability ([2]; first compound 20 µM)	relative viability (TPCA-1 + OSI-027; first compound 0.04 µM)	relative viability (TPCA-1 + OSI-027; first compound 0.1265 µM)	relative viability (TPCA-1 + OSI-027; first compound 0.4 µM)	relative viability (TPCA-1 + OSI-027; first compound 1.265 µM)	relative viability (TPCA-1 + OSI-027; first compound 4 µM)	relative viability (TPCA-1 + Pemetrexed; first compound 0.04 µM)	relative viability (TPCA-1 + Pemetrexed; first compound 0.1265 µM)	relative viability (TPCA-1 + Pemetrexed; first compound 0.4 µM)	relative viability (TPCA-1 + Pemetrexed; first compound 1.265 µM)	relative viability (TPCA-1 + Pemetrexed; first compound 4 µM)
SK-LU-1	1.18	1.07	1.11	0.817	1.06	0.182	0.203	0.189	0.164	0.224	0.4	0.317	0.312	0.248	0.234	1.03	0.94	0.986	0.831	0.73
LOU-NH91	0.776	0.746	0.769	0.671	0.729	0.559	0.582	0.585	0.514	0.531	0.75	0.662	0.735	0.793	0.73	0.399	0.376	0.389	0.392	0.532
LXF-289	1.02	1.08	1.05	0.974	1.04	0.241	0.178	0.251	0.154	0.203	0.86	0.674	0.763	0.603	0.347	0.883	0.869	0.903	0.877	0.535
NCI-H1299	1.04	1.08	1.03	0.948	1.04	–	–	–	–	–	–	–	–	–	–	–	–	–	–	–
HARA	0.802	0.78	0.885	0.598	0.861	0.275	0.3	0.338	0.269	0.252	0.811	0.454	0.627	0.355	0.131	0.242	0.226	0.226	0.198	0.223
LU99A	0.499	0.547	0.545	0.476	0.454	0.611	0.539	0.714	0.623	0.554	0.325	0.297	0.322	0.232	0.258	0.17	0.162	0.196	0.167	0.198
201T	1.01	0.964	1.08	0.934	1	0.633	0.523	0.529	0.493	0.612	0.781	0.751	0.782	0.669	0.484	0.363	0.298	0.337	0.282	0.304
HCC-827	0.903	0.924	1.02	0.935	0.98	0.405	0.366	0.31	0.265	0.31	0.793	0.782	0.729	0.706	0.503	0.252	0.267	0.281	0.256	0.276
NCI-H1666	1.18	0.936	0.972	0.712	0.852	0.833	0.847	0.811	0.786	0.875	0.856	0.788	0.851	0.883	0.865	1.02	0.818	0.842	0.82	0.93
NCI-H1915	1.05	1.06	1.09	0.976	1.03	0.337	0.335	0.328	0.202	0.321	0.695	0.563	0.676	0.509	0.467	0.532	0.507	0.509	0.46	0.371
NCI-H2009	0.991	1.2	1.16	1.14	1.13	0.282	0.296	0.306	0.269	0.311	0.773	0.647	0.623	0.406	0.327	1.07	0.979	1	1.11	0.99
ChaGo-K-1	–	–	–	–	–	0.546	0.669	0.592	0.51	0.286	0.652	0.518	0.617	0.577	0.276	0.273	0.23	0.274	0.261	0.211
COR-L 105	1.36	1.02	0.902	0.728	0.913	0.453	0.341	0.339	–	0.302	0.646	0.602	0.707	0.649	0.396	1.02	0.931	1.23	1.03	0.777
NCI-H2170	0.888	0.775	0.758	0.638	0.749	0.47	0.632	0.639	0.622	0.511	0.789	0.641	0.716	0.584	0.396	0.273	0.34	0.288	0.28	0.265
